Experimental data as given in PubChem BioAssay (NCI).
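Growth conditions: 96-well plates. Treatment: test compound, 48 hours, 5 concentrations. Analysis: linear interpolation between bracketing concentrations; unreached endpoints set to highest concentration. GI50 marks 50% less growth. TGI denotes the concentration required for complete inhibition of growth.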

Experiments:
Test in all cases: NCI tumour cell line growth inhibition, 48 h
DU-145 prostate = system: DU-145 prostate
NCI-H522 lung = system: NCI-H522 lung
OVCAR-8 ovarian = system: OVCAR-8 ovarian
EKVX NSCLC = system: EKVX NSCLC
SK-MEL-2 melanoma = system: SK-MEL-2 melanoma
SN12C renal = system: SN12C renal
BT-549 breast = system: BT-549 breast
HOP-62 NSCLC = system: HOP-62 NSCLC
MOLT-4 leukemia = system: MOLT-4 leukemia
HL-60(TB) leukemia = system: HL-60(TB) leukemia

SMILES	TGI (DU-145 prostate)	TGI (NCI-H522 lung)	TGI (OVCAR-8 ovarian)	TGI (EKVX NSCLC)	TGI (SK-MEL-2 melanoma)	TGI (SN12C renal)	TGI (BT-549 breast)	TGI (HOP-62 NSCLC)	TGI (MOLT-4 leukemia)	TGI (HL-60(TB) leukemia)	GI50 (DU-145 prostate)	GI50 (SK-MEL-2 melanoma)	GI50 (SN12C renal)	GI50 (HL-60(TB) leukemia)	GI50 (HOP-62 NSCLC)	GI50 (NCI-H522 lung)	GI50 (OVCAR-8 ovarian)	GI50 (EKVX NSCLC)	GI50 (MOLT-4 leukemia)
O=C1C(=Cc2ccccc2[N+](=O)[O-])N=C(c2ccccc2)N1n1c(-c2ccccc2)nc2ccccc2c1=O	> 100 µM	31.8 µM	78.7 µM	> 100 µM	88.2 µM	87.3 µM	> 100 µM	> 100 µM	70.4 µM	–	–	–	–	–	–	–	–	–	–
COc1ccc(NC(=S)NNC(=O)c2cc(-c3ccccc3)nc3ccccc23)cc1	45.4 µM	50.7 µM	38.9 µM	–	38.9 µM	48.6 µM	39.8 µM	33.3 µM	59.2 µM	–	–	–	–	–	–	–	–	–	–
O=S(=O)(/N=C1/SC(=Nc2ccccc2)N(c2ccccc2)/C1=N/S(=O)(=O)c1ccccc1)c1ccccc1	–	–	62.6 µM	76.8 µM	45 µM	31.5 µM	79.2 µM	80.4 µM	62.2 µM	45.1 µM	–	–	–	–	–	–	–	–	–
COc1cc(C2(C)SCCCS2)c(I)c(OC)c1OC	–	> 100 µM	> 100 µM	> 100 µM	> 100 µM	> 100 µM	–	> 100 µM	> 100 µM	> 100 µM	–	–	–	–	–	–	–	–	–
CN(C)c1ccc(/C=C2\C[C@H]3[C@@H]4CCc5cc(O)ccc5[C@H]4CC[C@]3(C)C2=O)cc1	> 100 µM	–	> 100 µM	> 100 µM	> 100 µM	–	–	> 100 µM	> 100 µM	–	–	–	–	–	–	–	–	–	–
CCOC(=O)C[n+]1ccc2c([nH]c3cc(OC)ccc32)c1C	–	> 100 µM	> 100 µM	> 100 µM	> 100 µM	> 100 µM	–	> 100 µM	> 100 µM	> 100 µM	–	–	–	–	–	–	–	–	–
COc1ccc(N2C(=O)/C(=C/c3ccc(N(CCC#N)CCC#N)cc3)N=C2c2ccccc2)c(OC)c1	> 100 µM	74.1 µM	> 100 µM	> 100 µM	–	> 100 µM	> 100 µM	–	> 100 µM	> 100 µM	–	–	–	–	–	–	–	–	–
c1cc2ccc1CNCCN1CCNCc3ccc(cc3)Oc3ccc(cc3)CNCCN(CCNCc3ccc(cc3)O2)CCNCc2ccc(cc2)Oc2ccc(cc2)CNCC1	2.83 µM	–	–	–	3.14 µM	1.57 µM	–	2.96 µM	–	2.02 µM	1.46 µM	1.6 µM	0.446 µM	0.503 µM	1.51 µM	–	–	–	–
C/C(=C\c1ccccc1)C(=O)NCc1ccc(C(=O)NCCc2c[nH]c3ccccc23)cc1	> 100 µM	> 100 µM	> 100 µM	> 100 µM	> 100 µM	> 100 µM	> 100 µM	> 100 µM	> 100 µM	–	–	–	–	–	–	–	–	–	–
CC(C)c1nccn1Cc1ccc(Cl)cc1Cl	> 100 µM	97.9 µM	> 100 µM	> 100 µM	> 100 µM	88.7 µM	> 100 µM	> 100 µM	–	–	–	–	–	–	–	–	–	–	–
O=C(O)CCCc1ccc2c(c1)CC1(C2)Cc2ccc(CCCC(=O)O)cc2C1	–	> 100 µM	> 100 µM	> 100 µM	> 100 µM	> 100 µM	–	> 100 µM	> 100 µM	> 100 µM	–	–	–	–	–	–	–	–	–
NC1CCCCC1N.O=S(=O)([O-])CCCN1CCN(CCO)CC1.O=S(=O)([O-])CCCN1CCN(CCO)CC1.[Pt+4]	–	17.9 µM	> 100 µM	> 100 µM	23.4 µM	> 100 µM	–	> 100 µM	20.6 µM	11.6 µM	–	13.1 µM	7.56 µM	0.132 µM	> 20.7 µM	2.73 µM	2.78 µM	55.4 µM	0.587 µM
C=C1C(=O)O[C@H]2C/C(C=O)=C\[C@H]3O[C@H]3/C(COC(=O)C(C)C)=C/CC12 (stereo not given in full)	25.2 µM	10.5 µM	13.3 µM	29.8 µM	–	7.11 µM	24.8 µM	26.5 µM	10.6 µM	5.54 µM	–	–	–	–	–	–	–	–	–
Cc1cccc(C(O)c2cccnc2)c1O (stereo not given)	> 100 µM	> 100 µM	> 100 µM	> 100 µM	–	> 100 µM	> 100 µM	> 100 µM	> 100 µM	> 100 µM	–	–	–	–	–	–	–	–	–
CC1(C)N=C(N)N=C(N)N1c1ccc(OCCCOc2ccccc2)c(Cl)c1	–	8.39 µM	14.5 µM	14.4 µM	16.9 µM	14.9 µM	–	–	16.8 µM	–	–	–	–	–	–	–	–	–	–
COC(=O)C(C(=O)OC)C1CC(=O)c2c(Br)sc(Br)c21 (stereo not given)	34.8 µM	–	37.8 µM	32.4 µM	27.4 µM	32.4 µM	35.7 µM	46.3 µM	18.7 µM	49.9 µM	–	–	–	–	–	–	–	–	–
O=C(NC/C=C/Br)NC1CCNc2ccccc21 (stereo not given)	> 100 µM	> 100 µM	> 100 µM	92.6 µM	86.8 µM	> 100 µM	–	> 100 µM	95.4 µM	> 100 µM	–	–	–	–	–	–	–	–	–
CC1(C)O[C@@H](CP(c2cccc3ccccc23)c2cccc3ccccc23)[C@H](CP(c2cccc3ccccc23)c2cccc3ccccc23)O1	> 100 µM	> 100 µM	> 100 µM	> 100 µM	> 100 µM	> 100 µM	> 100 µM	> 100 µM	> 100 µM	–	–	–	–	–	–	–	–	–	–
O=C1OC2C=CC1C1(CCOC1=O)C2 (stereo not given)	–	> 100 µM	> 100 µM	> 100 µM	> 100 µM	> 100 µM	–	> 100 µM	> 100 µM	> 100 µM	–	–	–	–	–	–	–	–	–
CCCCCCCCCCCCCCCCNc1ccn(C2CC(OP(=O)(O)OCC3OC(n4cc(CC)c(=O)[nH]c4=O)CC3O)C(CO)O2)c(=O)n1 (stereo not given)	> 100 µM	> 100 µM	43.6 µM	> 100 µM	39.1 µM	> 100 µM	–	53.9 µM	41.3 µM	20.2 µM	–	–	–	–	–	–	–	–	–
CC1(C)CC2(C)OC(=N)C1(C#N)C2(C#N)C#N (stereo not given)	27.7 µM	8.38 µM	46.8 µM	19.4 µM	31.7 µM	21.7 µM	–	–	38.1 µM	15.6 µM	–	–	–	–	–	–	–	–	–
COc1ccc(NS(=O)c2cccc(C)c2)cc1 (stereo not given)	> 100 µM	> 100 µM	> 100 µM	> 100 µM	–	> 100 µM	–	> 100 µM	> 100 µM	> 100 µM	–	–	–	–	–	–	–	–	–
